Laboratory results as given in US9670227B2, “Thienopyrimidine derivatives, a process for their preparation and pharmaceutical compositions containing them” (LES LABORATOIRES SERVIER, priority 2013, dated 2017).

Molecular target: Mcl-1 protein (UniProtKB primary accession number: Q07820) (Homo sapiens, UniProt Q07820)
Test: Inhibition of Mcl-1 by fluorescence polarisation, Method 1
Assay type: binding
Conditions: fluorescence polarisation; Method 1, or Method 2; read-out: IC50 (M) Mcl-1 FP
Outline: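 Buffer of 10 mM HEPES pH 7.4 with 150 mM NaCl and 0.05% Tween 20 held 5 nM Mcl-1 and 1 nM fluorescein-tagged ligand (final). Compounds were tested as 11-point serial dilutions at 5% final DMSO, and binding was read by FP.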

Mcl-1 protein, sequence (Q07820 whole entry): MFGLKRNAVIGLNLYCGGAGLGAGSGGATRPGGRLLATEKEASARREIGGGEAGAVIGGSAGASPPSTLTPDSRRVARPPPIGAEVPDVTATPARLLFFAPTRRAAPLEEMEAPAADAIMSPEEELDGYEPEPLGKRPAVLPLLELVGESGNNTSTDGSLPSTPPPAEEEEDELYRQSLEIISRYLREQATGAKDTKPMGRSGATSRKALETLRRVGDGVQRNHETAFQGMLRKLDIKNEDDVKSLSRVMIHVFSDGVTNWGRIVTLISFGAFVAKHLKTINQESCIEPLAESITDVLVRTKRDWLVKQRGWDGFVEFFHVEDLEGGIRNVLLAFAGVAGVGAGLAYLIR

IC50	SMILES
4.9e-07 M	CCOC(=O)C(Cc1ccccc1OC)Oc1ncnc2sc(-c3ccco3)c(-c3ccc(OCCN4CCN(C)CC4)c(Cl)c3C)c12 [Example 627, ethyl (2R)-2-{[(5Sa)-5-{3-chloro-2-methyl-4-[2-(4-methylpiperazin-1-yl)ethoxy]phenyl}-6-(furan-2-yl)thieno[2,3-d]pyrimidin-4-yl]oxy}-3-(2-methoxyphenyl)propanoate]

Same assay, conditions: partial inhibitors; @ 10 uM test compound

percentage fluorescence polarisation inhibition, Mcl-1 FP	SMILES
39.45% @ 10 uM	CCOC(=O)[C@@H](Cc1ccccc1OCc1ccnc(OC)n1)Oc1ncnc2sc(-c3ccc(F)cc3)c(-c3ccc(OCCN4CCN(C)CC4)c(Cl)c3C)c12 [Example 626, ethyl (2R)-2-{[(5Sa)-5-{3-chloro-2-methyl-4-[2-(4-methylpiperazin-1-yl)ethoxy]phenyl}-6-(4-fluorophenyl)thieno[2,3-d]pyrimidin-4-yl]oxy}-3-{2-[(2-methoxypyrimidin-4-yl)methoxy]phenyl}propanoate]
56% @ 10 uM	CCOC(=O)[C@@H](Cc1ccccc1OCc1cnccn1)Oc1ncnc2sc(-c3ccc(F)cc3)c(-c3ccc(OCCN4CCN(C)CC4)c(Cl)c3C)c12 [Example 631, ethyl (2R)-2-{[(5Sa)-5-{3-chloro-2-methyl-4-[2-(4-methylpiperazin-1-yl)ethoxy]phenyl}-6-(4-fluorophenyl)thieno[2,3-d]pyrimidin-4-yl]oxy}-3-[2-(pyrazin-2-ylmethoxy)phenyl]propanoate]
41.8% @ 10 uM	CCOC(=O)[C@@H](Cc1ccccc1OCc1cnccn1)Oc1ncnc2sc(-c3ccc(F)cc3)c(-c3ccc(OCCN4CCOCC4)c(Cl)c3C)c12 [Example 632, ethyl (2R)-2-{[(5Sa)-5-{3-chloro-2-methyl-4-[2-(morpholin-4-yl)ethoxy]phenyl}-6-(4-fluorophenyl)thieno[2,3-d]pyrimidin-4-yl]oxy}-3-[2-(pyrazin-2-ylmethoxy)phenyl]propanoate]
40.2 % @ 10 uM	CCOC(=O)[C@@H](Cc1ccccc1OC)Oc1ncnc2sc(-c3ccsc3)c(-c3ccc(OCCN4CCN(C)CC4)c(Cl)c3C)c12 [Example 633, ethyl (2R)-2-{[(5Sa)-5-{3-chloro-2-methyl-4-[2-(4-methylpiperazin-1-yl)ethoxy]phenyl}-6-(thiophen-3-yl)thieno[2,3-d]pyrimidin-4-yl]oxy}-3-(2-methoxyphenyl)propanoate]

SMILES	percentage fluorescence polarisation inhibition, Mcl-1 FP
CCOC(=O)[C@@H](Cc1ccccc1OC[C@H]1CCCO1)Oc1ncnc2sc(-c3ccc(F)cc3)c(-c3ccc(OCCN4CCN(C)CC4)c(Cl)c3C)c12 [Example 628, ethyl (2R)-2-{[(5Sa)-5-{3-chloro-2-methyl-4-[2-(4-methylpiperazin-1-yl)ethoxy]phenyl}-6-(4-fluorophenyl)thieno[2,3-d]pyrimidin-4-yl]oxy}-3-{2-[(2R)-tetrahydrofuran-2-ylmethoxy]phenyl}propanoate]	33.2% @ 10 uM
CCOC(=O)[C@@H](Cc1ccccc1OC[C@H]1CCCO1)Oc1ncnc2sc(-c3ccc(F)cc3)c(-c3ccc(OCCN4CCOCC4)c(Cl)c3C)c12 [Example 629, ethyl (2R)-2-{[(5Sa)-5-{3-chloro-2-methyl-4-[2-(morpholin-4-yl)ethoxy]phenyl}-6-(4-fluorophenyl)thieno[2,3-d]pyrimidin-4-yl]oxy}-3-{2-[(2R)-tetrahydrofuran-2-ylmethoxy]phenyl}propanoate]	14.95% @ 10 uM
CCOC(=O)C(Cc1ccccc1OCC1CCCO1)Oc1ncnc2sc(-c3ccc(F)cc3)c(-c3ccc(OCCN(C)C)c(Cl)c3C)c12 [Example 630, ethyl (2R)-2-{[(5Sa)-5-{3-chloro-4-[2-(dimethylamino)ethoxy]-2-methylphenyl}-6-(4-fluorophenyl)thieno[2,3-d]pyrimidin-4-yl]oxy}-3-{2-[(2R)-tetrahydrofuran-2-ylmethoxy]phenyl}propanoate]	27.95% @ 10 uM
